Activity calls are given as the source filed them.
Tests used:
[1] = target: Sphingosine 1-phosphate receptor 2 (Homo sapiens, UniProt O95136); test: Dose Response Cell Based Assay for Antagonists of the S1P2 Receptor. [Related pubchem assays: 856, 736 ]; type: functional
[2] = Intein inhibitors as potential Tuberculosis drugs, a cytotoxicity screen. [Related pubchem assays (depositor defined):AID2221, AID2223, AID434968, AID435010, AID449749, AID449750, AID489010]; type: functional
[3] = (§1) Counterscreen for antagonists of the orexin 1 receptor (OX1R; HCRTR1): Fluorescence-based cell-based high throughput dose response assay to identify antagonists of the parental CHO cell line. [Related pubchem assays (depositor defined):AID434989, AID435008, AID463079, AID485270, AID492963, AID492964, AID492965, AID493232, AID504699, AID504701]; type: functional
Orexin receptor type 2 = Orexin receptor type 2 (Homo sapiens, UniProt O43614); test: Counterscreen assay for antagonists of the orexin 1 receptor (OX1R; HCRTR1): Fluorescence-based cell-based dose response assay for antagonists of the orexin 2 receptor (OX2R; HCRTR2), run by assay provider.; type: functional
[4] = general mammalian cell viability loss – inhibitor set, cherry-pick, set 2, cytotoxicity control for miR-122 modulator project, dose response (AID 720697); type: functional, cell-based
CHO-K1 = test: as §1, with “Homogeneous time resolved fluorescence (HTRF)-based” for “Fluorescence-based”, “cell-based” for “cell-based high throughput”, “CHO-K1” for “CHO”; type: functional; settings: Cricetulus griseus;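 also: potency for inhibition of ATP-stimulated IP1 production as antagonists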
[5] = target: Photoreceptor-specific nuclear receptor (Homo sapiens, UniProt Q9Y5X4); type: functional;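 also: potency for compounds that break the NR2E3 corepressor complex and count as activators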
[6] = target: T1, 1-phosphatidylinositol 4,5-bisphosphate phosphodiesterase gamma-1 (Homo sapiens, UniProt P19174); test: Counterscreen for inhibitors of phospholipase C isozymes (PLC-B3): Fluorescence-based biochemical high throughput dose response assay to identify inhibitors of phospholipase C isozymes (PLC-gamma1).
T1 sequence (P19174 whole entry): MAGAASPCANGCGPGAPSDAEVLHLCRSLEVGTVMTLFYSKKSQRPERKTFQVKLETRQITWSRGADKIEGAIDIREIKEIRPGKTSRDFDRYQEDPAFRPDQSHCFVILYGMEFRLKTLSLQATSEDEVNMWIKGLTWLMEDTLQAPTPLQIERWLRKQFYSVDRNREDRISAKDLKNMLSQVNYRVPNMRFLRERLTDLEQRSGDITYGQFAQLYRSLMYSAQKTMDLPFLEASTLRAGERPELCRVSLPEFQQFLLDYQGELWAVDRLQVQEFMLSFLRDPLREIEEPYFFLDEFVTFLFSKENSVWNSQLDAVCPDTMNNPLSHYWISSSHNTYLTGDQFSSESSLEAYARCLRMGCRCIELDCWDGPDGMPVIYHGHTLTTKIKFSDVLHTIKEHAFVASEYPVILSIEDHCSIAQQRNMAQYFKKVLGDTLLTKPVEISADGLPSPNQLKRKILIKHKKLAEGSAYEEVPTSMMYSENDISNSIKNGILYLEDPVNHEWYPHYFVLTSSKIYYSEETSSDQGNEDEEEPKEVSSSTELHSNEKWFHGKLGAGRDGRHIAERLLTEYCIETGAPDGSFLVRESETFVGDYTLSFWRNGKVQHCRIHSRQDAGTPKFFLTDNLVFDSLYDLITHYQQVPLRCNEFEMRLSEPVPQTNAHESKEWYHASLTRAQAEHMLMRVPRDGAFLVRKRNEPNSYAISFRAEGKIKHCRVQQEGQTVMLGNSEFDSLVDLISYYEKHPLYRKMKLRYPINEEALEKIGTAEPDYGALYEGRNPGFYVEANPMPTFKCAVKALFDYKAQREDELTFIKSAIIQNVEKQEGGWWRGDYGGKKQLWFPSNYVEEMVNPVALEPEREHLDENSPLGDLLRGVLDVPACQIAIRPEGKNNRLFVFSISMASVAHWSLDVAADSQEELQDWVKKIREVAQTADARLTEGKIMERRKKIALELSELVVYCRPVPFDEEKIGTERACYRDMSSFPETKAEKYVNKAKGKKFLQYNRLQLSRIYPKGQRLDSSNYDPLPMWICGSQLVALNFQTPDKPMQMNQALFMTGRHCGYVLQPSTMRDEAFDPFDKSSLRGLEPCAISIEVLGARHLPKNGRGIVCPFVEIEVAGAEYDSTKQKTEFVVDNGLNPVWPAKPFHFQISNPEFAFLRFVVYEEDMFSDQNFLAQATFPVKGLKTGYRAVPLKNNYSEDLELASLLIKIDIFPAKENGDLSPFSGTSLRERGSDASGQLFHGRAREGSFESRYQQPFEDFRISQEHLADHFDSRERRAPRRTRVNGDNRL

[7] = target: T2, Zinc finger protein mex-5 (Caenorhabditis elegans, UniProt Q9XUB2); test: potency of MEX-5 RNA-binding blockers – biochemical, C. elegans, fluorescence polarization, dose response (AID 1960)
T2 sequence (Q9XUB2 whole entry): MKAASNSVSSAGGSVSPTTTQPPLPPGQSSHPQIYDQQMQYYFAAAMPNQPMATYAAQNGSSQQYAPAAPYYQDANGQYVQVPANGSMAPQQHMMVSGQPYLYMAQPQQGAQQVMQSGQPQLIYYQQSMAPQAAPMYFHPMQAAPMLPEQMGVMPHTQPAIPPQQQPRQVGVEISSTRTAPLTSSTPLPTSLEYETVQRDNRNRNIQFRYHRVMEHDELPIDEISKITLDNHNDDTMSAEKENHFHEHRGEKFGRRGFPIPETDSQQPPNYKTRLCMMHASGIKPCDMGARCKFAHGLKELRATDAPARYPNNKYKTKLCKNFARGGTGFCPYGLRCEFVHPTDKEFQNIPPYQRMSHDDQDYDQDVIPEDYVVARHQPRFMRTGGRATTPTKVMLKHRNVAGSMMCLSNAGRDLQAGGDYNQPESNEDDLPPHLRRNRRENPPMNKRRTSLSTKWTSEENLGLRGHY

[8] = target: Cyclin-dependent kinase 9 (Homo sapiens, UniProt P50750); type: functional;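 also: value from the CDK9 entry of a kinome-spanning kinase panel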
[9] = target: Ribosomal protein S6 kinase alpha-3 (Homo sapiens, UniProt P51812); type: functional;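 also: measured within a kinome-wide profiling panel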
[10] = target: Serine/threonine-protein kinase Chk1 (Homo sapiens, UniProt O14757); type: functional;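 also: measured as one member of a kinome-wide kinase profiling panel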
Activin receptor type-1 = Activin receptor type-1 (Homo sapiens, UniProt Q04771); test: Navigating the Kinome. Panel member name: ACVR1; type: functional
[11] = blockers of HIV-1 envelope-mediated cell-cell fusion – cherry-pick, dose response (AID 652057); type: functional, cell-based
[12] = HIV-1 AD8 envelope cell-cell fusion blockers – cherry-pick, dose response (AID 652062); type: functional, cell-based;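 also: luciferase signal from cell-cell fusion driven by HIV-1 clade B AD8 Env; potency is for inhibitors of fusion seen as a drop in luminescence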
[13] = mammalian cell viability loss – Alamar Blue, dry powder, cytotoxicity control for antifungal single agent project, dose response (AID 602188); type: functional, cell-based
[14] = NIH3T3 cell viability loss – ATP luminescence, mouse fibroblasts, counter-screen, dose response (AID 2010); type: functional, cell-based;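 also: cells exposed to compound for about 90 hours before reading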
[15] = viability loss in CEM21 cells – cell-based, CellTiter-Glo luminescence, cherry-picked, cytotoxicity control for viral fusion inhibitor project, dose response (AID 652042); type: functional;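 also: potency for signal decrease meaning cytotoxicity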
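For CC50 in this document: cells exposed to compound for 72 hours before luminescence readout.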

Sequence of Activin receptor type-1 (Q04771 whole entry, the tested form may be a part): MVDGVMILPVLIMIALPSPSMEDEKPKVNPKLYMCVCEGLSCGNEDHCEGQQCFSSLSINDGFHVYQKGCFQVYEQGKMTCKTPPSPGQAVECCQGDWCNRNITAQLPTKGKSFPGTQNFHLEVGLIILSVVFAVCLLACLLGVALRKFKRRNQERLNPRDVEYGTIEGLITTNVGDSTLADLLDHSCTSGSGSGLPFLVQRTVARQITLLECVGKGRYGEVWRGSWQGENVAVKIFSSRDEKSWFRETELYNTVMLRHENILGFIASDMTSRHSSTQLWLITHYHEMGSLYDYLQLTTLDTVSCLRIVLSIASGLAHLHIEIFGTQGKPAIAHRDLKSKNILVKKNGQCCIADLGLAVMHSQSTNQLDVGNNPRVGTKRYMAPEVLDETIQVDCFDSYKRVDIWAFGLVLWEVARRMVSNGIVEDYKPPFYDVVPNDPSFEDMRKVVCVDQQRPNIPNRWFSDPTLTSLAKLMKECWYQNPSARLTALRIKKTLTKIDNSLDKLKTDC
Sequence of Orexin receptor type 2 (O43614 whole entry): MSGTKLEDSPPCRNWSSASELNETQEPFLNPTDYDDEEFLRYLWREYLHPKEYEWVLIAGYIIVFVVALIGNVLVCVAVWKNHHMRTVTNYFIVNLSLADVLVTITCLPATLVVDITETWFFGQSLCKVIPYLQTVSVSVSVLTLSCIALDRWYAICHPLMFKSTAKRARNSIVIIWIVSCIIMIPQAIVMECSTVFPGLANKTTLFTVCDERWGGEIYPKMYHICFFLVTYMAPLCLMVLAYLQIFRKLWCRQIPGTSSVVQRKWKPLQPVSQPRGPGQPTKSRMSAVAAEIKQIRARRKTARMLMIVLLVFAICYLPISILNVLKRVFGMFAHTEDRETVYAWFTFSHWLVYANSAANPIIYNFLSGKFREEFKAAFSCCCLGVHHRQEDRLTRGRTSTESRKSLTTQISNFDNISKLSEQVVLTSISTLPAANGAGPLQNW
Sequence of Serine/threonine-protein kinase Chk1 (O14757 whole entry): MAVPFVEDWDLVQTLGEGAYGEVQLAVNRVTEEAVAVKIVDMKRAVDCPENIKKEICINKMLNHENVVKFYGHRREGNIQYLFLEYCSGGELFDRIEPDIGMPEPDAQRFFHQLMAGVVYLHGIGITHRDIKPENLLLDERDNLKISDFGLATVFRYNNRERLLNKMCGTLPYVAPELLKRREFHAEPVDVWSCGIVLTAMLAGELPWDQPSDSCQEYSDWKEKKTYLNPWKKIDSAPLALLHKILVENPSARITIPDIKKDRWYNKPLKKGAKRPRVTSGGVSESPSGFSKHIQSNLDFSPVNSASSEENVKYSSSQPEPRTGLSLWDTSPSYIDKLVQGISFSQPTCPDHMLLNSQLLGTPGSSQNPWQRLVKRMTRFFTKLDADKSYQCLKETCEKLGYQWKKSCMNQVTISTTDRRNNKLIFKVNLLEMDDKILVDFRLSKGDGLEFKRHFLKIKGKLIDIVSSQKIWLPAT
Sequence of Cyclin-dependent kinase 9 (P50750 whole entry): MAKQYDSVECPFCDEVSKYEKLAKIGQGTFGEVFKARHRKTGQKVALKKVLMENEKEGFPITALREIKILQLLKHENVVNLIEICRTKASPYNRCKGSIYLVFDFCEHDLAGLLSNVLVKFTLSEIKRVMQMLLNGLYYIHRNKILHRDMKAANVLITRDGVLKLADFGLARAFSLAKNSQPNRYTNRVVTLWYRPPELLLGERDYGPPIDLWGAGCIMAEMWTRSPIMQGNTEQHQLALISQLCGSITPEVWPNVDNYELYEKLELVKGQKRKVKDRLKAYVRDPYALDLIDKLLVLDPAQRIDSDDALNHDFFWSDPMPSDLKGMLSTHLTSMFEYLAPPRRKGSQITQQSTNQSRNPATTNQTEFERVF
Sequence of Ribosomal protein S6 kinase alpha-3 (P51812 whole entry): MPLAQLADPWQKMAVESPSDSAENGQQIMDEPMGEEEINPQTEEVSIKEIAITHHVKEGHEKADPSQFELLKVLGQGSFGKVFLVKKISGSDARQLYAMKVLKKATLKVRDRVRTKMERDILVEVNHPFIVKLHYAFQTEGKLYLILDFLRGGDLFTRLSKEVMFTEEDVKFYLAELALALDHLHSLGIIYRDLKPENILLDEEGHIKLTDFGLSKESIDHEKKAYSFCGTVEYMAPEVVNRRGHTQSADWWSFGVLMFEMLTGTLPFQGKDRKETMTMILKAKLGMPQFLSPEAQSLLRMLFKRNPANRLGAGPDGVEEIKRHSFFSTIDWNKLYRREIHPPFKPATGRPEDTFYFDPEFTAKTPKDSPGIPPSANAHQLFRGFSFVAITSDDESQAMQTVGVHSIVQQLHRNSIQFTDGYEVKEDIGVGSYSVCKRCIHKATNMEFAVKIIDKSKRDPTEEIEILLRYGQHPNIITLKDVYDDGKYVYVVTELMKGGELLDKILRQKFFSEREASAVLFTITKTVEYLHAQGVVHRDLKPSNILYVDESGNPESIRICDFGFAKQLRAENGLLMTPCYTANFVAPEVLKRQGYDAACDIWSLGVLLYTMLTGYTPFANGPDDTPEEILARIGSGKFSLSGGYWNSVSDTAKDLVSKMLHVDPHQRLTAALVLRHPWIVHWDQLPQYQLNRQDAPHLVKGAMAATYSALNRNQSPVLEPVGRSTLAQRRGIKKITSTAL
Sequence of Sphingosine 1-phosphate receptor 2 (O95136 whole entry): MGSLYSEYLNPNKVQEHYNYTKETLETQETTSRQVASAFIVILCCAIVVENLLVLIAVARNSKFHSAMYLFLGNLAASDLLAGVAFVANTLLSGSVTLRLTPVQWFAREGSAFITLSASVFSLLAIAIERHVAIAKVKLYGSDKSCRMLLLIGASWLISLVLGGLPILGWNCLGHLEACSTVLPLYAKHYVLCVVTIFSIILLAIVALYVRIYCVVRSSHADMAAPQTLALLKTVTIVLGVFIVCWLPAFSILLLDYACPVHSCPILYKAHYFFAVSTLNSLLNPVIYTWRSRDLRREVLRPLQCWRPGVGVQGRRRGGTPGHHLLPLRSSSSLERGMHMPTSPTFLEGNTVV
Sequence of Photoreceptor-specific nuclear receptor (Q9Y5X4 whole entry): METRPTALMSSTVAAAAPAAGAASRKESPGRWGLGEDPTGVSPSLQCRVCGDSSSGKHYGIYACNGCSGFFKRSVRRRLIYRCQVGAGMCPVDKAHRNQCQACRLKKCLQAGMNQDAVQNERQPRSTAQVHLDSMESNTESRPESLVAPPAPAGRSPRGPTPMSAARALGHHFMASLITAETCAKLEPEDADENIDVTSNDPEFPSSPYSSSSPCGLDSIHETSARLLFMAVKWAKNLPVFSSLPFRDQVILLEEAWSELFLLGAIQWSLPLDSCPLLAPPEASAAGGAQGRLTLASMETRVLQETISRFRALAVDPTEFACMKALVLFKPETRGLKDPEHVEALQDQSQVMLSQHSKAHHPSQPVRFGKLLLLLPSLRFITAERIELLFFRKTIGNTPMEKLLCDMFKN

Structure (SMILES): Cc1ccc(C(=O)OCn2ncc(Cl)c(Cl)c2=O)cc1
- IC50 [1]: 2.65 µM (active)
- CC50 [2]: 2.85 µM (active)
- IC50 [3]: > 49.7 µM (inactive)
- IC50 (Orexin receptor type 2): > 88.8 µM (inactive)
- AC50 [4]: 4.05 µM (active)
- IC50 (CHO-K1): > 66.2 µM (inactive)

Structure (SMILES): O=C(O)CC(C(=O)O)N1C(=O)/C(=C/C=C/c2ccco2)SC1=S (stereo not drawn)
- IC50 [5]: > 39.8 µM (not active)
- IC50 [6]: > 1.51 µM (active)
- EC50 [7]: 23.3 µM (active)

Structure (SMILES): O=C(Nc1cccc(C2Nc3ccc4ccccc4c3C3C=CCC32)c1)c1ccc(F)cc1 (stereo not drawn)
- Ki [8]: 0.251 µM (active)
- Ki [9]: > 3.98 µM (inactive)

Structure (SMILES): Cc1ccc(-c2cc(-c3cc(Br)ccc3O)[nH]c(=O)c2C#N)s1
- Ki [10]: > 3.16 µM (inactive)
- Ki (Activin receptor type-1): > 3.98 µM (inactive)

Structure (SMILES): CCCC(=O)NC(c1cccs1)c1cc(Cl)c2cccnc2c1O (stereo not drawn)
- AC50 [11]: 4.9 µM (active)
- AC50 [12]: 6.73 µM (active)
- AC50 [13]: 1.06 µM (active)
- EC50 [14]: 2.61 µM (active)
- AC50 [15]: 25.1 µM (active)
